ChEMBL document CHEMBL5715954, “Silencing c-Myc translation as a therapeutic strategy through targeting PI3Kδ and CK1ε in hematological malignancies” (Blood, 2017)

How the values were obtained:
Design in all cases: scale not given: the % may be the effect or the level left
[1] = biological target: Proto-oncogene tyrosine-protein kinase Src (Homo sapiens) (UniProt P12931); experiment: Inhibition of human c-Src assessed as enzyme activity at 1 uM using poly[Glu:Tyr] (4:1) as substrate preincubated for 20 mins followed by [gamma-33P]-ATP addition and measured after 120 mins by radiometric Hot-SpotSM Kinase assay relative to control
[2] = biological target: Serine/threonine-protein kinase Chk2 (Homo sapiens) (UniProt O96017); experiment: Inhibition of human CHK2 assessed as enzyme activity at 1 uM using KKKVSRSGLYRSPSMPENLNRPR as substrate preincubated for 20 mins followed by [gamma-33P]-ATP addition and measured after 120 mins by radiometric Hot-SpotSM Kinase assay relative to control
[3] = biological target: Casein kinase I isoform alpha (Homo sapiens) (UniProt P48729); experiment: Inhibition of human CK1a1 assessed as enzyme activity at 1 uM using KRRRAL[pS]VASLPGL as substrate preincubated for 20 mins followed by [gamma-33P]-ATP addition and measured after 120 mins by radiometric Hot-SpotSM Kinase assay relative to control
[4] = biological target: Dual specificity protein kinase CLK2 (Homo sapiens) (UniProt P49760); experiment: Inhibition of human CLK2 assessed as enzyme activity at 1 uM using myelin basic protein as substrate preincubated for 20 mins followed by [gamma-33P]-ATP addition and measured after 120 mins by radiometric Hot-SpotSM Kinase assay relative to control
[5] = biological target: Dual specificity tyrosine-phosphorylation-regulated kinase 1B (Homo sapiens) (UniProt Q9Y463); experiment: Inhibition of human DYRK1B assessed as enzyme activity at 1 uM using RRRFRPASPLRGPPK as substrate preincubated for 20 mins followed by [gamma-33P]-ATP addition and measured after 120 mins by radiometric Hot-SpotSM Kinase assay relative to control
[6] = biological target: T1, Dual specificity tyrosine-phosphorylation-regulated kinase 2 (Homo sapiens) (UniProt Q92630); experiment: Inhibition of human DYRK2 assessed as enzyme activity at 1 uM using RRRFRPASPLRGPPK as substrate preincubated for 20 mins followed by [gamma-33P]-ATP addition and measured after 120 mins by radiometric Hot-SpotSM Kinase assay relative to control
T1 sequence (whole entry): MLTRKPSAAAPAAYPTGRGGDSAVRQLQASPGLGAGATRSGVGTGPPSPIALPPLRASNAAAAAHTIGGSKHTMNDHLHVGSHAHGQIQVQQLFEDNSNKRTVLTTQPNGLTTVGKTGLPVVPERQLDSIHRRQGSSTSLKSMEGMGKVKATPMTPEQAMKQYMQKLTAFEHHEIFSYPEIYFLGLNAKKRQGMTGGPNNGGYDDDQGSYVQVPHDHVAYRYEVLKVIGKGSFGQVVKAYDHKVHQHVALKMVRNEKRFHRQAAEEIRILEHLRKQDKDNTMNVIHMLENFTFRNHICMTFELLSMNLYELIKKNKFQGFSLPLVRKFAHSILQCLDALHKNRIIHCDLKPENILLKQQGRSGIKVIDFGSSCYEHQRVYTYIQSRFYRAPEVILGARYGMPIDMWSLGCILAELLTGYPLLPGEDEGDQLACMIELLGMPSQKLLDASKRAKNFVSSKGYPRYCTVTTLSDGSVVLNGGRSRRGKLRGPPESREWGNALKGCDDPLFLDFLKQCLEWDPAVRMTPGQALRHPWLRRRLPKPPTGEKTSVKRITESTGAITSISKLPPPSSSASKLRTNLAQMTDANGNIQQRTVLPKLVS

[7] = biological target: MAP/microtubule affinity-regulating kinase 3 (Homo sapiens) (UniProt P27448); experiment: Inhibition of human MARK3 assessed as enzyme activity at 1 uM using KKKVSRSGLYRSPSMPENLNRPR as substrate preincubated for 20 mins followed by [gamma-33P]-ATP addition and measured after 120 mins by radiometric Hot-SpotSM Kinase assay relative to control
[8] = biological target: Mitogen-activated protein kinase kinase kinase 21 (Homo sapiens) (UniProt Q5TCX8); experiment: Inhibition of human MLK4 assessed as enzyme activity at 1 uM using MEK1 (K97R) as substrate preincubated for 20 mins followed by [gamma-33P]-ATP addition and measured after 120 mins by radiometric Hot-SpotSM Kinase assay relative to control
[9] = biological target: Serine/threonine-protein kinase 26 (Homo sapiens) (UniProt Q9P289); experiment: Inhibition of human MST4 assessed as enzyme activity at 1 uM using myelin basic protein as substrate preincubated for 20 mins followed by [gamma-33P]-ATP addition and measured after 120 mins by radiometric Hot-SpotSM Kinase assay relative to control
[10] = biological target: T2, Myosin light chain kinase family member 4 (Homo sapiens) (UniProt Q86YV6); experiment: Inhibition of human MYLK4 assessed as enzyme activity at 1 uM using KKRPQRRYSNVF as substrate preincubated for 20 mins followed by [gamma-33P]-ATP addition and measured after 120 mins by radiometric Hot-SpotSM Kinase assay relative to control
T2 sequence (whole entry): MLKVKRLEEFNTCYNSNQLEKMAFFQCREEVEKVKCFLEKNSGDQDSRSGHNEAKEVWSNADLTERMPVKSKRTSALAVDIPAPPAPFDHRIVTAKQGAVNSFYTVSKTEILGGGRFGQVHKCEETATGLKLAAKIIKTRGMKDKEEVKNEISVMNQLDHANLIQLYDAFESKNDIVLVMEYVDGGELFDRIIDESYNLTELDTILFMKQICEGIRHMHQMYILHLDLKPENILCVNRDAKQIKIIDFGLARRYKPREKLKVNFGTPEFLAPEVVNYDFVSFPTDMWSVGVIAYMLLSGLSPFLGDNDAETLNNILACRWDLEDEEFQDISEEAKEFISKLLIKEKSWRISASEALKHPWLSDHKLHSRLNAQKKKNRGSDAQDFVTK

[11] = biological target: Serine/threonine-protein kinase OSR1 (Homo sapiens) (UniProt O95747); experiment: Inhibition of human OSR1 assessed as enzyme activity at 1 uM using RRHYYYDTHTNTYYLRTFGHNTRR as substrate preincubated for 20 mins followed by [gamma-33P]-ATP addition and measured after 120 mins by radiometric Hot-SpotSM Kinase assay relative to control
[12] = biological target: Protein kinase C beta type (Homo sapiens) (UniProt P05771); experiment: Inhibition of human PKCb1 assessed as enzyme activity at 1 uM using ERMRPRKRQGSVRRRV as substrate preincubated for 20 mins followed by [gamma-33P]-ATP addition and measured after 120 mins by radiometric Hot-SpotSM Kinase assay relative to control
[13] = biological target: Serine/threonine-protein kinase N2 (Homo sapiens) (UniProt Q16513); experiment: Inhibition of human PKN2 assessed as enzyme activity at 1 uM using KKLNRTLSVA as substrate preincubated for 20 mins followed by [gamma-33P]-ATP addition and measured after 120 mins by radiometric Hot-SpotSM Kinase assay relative to control
[14] = biological target: Serine/threonine-protein kinase 38 (Homo sapiens) (UniProt Q15208); experiment: Inhibition of human STK38 assessed as enzyme activity at 1 uM using KKRNRRLSVA as substrate preincubated for 20 mins followed by [gamma-33P]-ATP addition and measured after 120 mins by radiometric Hot-SpotSM Kinase assay relative to control

| Structure (SMILES) | Activity [1] [%] | Activity [2] [%] | Activity [3] [%] | Activity [4] [%] | Activity [5] [%] | Activity [6] [%] | Activity [7] [%] | Activity [8] [%] | Activity [9] [%] | Activity [10] [%] | Activity [11] [%] | Activity [12] [%] | Activity [13] [%] | Activity [14] [%] |
| --- | --- | --- | --- | --- | --- | --- | --- | --- | --- | --- | --- | --- | --- | --- |
| CC[C@H](Nc1ncnc2[nH]cnc12)c1nc2cccc(F)c2c(=O)n1-c1ccccc1 | 85.2 | 93.7 | 107 | 96.9 | 99.2 | 99 | 130 | 95.7 | 91.5 | 90.9 | 93.2 | 98.7 | 84.7 | 94.5 |
| C[C@H](Nc1ncnc2nc[nH]c12)c1cc2cccc(Cl)c2c(=O)n1-c1ccccc1 | 86.7 | 91.3 | 111 | 95.3 | 99.8 | 99 | 137 | 93.5 | 83.5 | 93 | 97.1 | 99.4 | 84.5 | 86.5 |
| CC(C)Oc1ccc(-c2nn([C@@H](C)c3oc4ccc(F)cc4c(=O)c3-c3cccc(F)c3)c3ncnc(N)c23)cc1F [UMBRALISIB] | 87.6 | 93.2 | 111 | 99.5 | 96.2 | 99.2 | 100 | 94.7 | 88.2 | 92.3 | 95.5 | 99 | 84.4 | 91.4 |
